Measurements taken from PMC7024208, “In Silico and In Vitro Experimental Studies of New Dibenz[b,e]oxepin-11(6H)one O-(arylcarbamoyl)-oximes Designed as Potential Antimicrobial Agents” (Molecules, 2020).

Experiments:
Test in all cases: Qualitative antimicrobial screening, adapted disk diffusion
E. coli ATCC 25922 = assay type: cell-based, Escherichia coli; settings: Escherichia coli, ATCC25922; E. coli ATCC 25922, adapted diffusion assay; read-out: growth inhibition diameter
Method: (§1) The antimicrobial activities of the synthesized compounds were determined against ATCC reference and clinical microbial strains, i.e., Bacillus subtilis ATCC 6633, Staphylococcus aureus ATCC 25923, Escherichia coli ATCC 25922, Klebsiella pneumoniae 350, Pseudomonas aeruginosa 1671 and Candida albicans ATCC 10231, using as positive controls the antibiotic ticarcillin and the antifungal agent fluconazole. Microbial suspensions of 1.5 × 10^8 CFU/mL corresponding to 0.5 McFarland density obtained from 15–18 h bacterial cultures developed on solid media were used in our experiments. The antimicrobial activity was tested on Mueller-Hinton Agar (MHA) medium, while a Yeast Peptone Glucose (YPG) medium was used in case of C. albicans. The obtained compounds were solubilized in DMSO and the starting stock solution was of 5000 μg/mL concentration. The qualitative screening was performed by an adapted disk diffusion method as previously reported.

P. aeruginosa ATCC 27853 = assay type: cell-based; settings: Pseudomonas aeruginosa, ATCC27853; P. aeruginosa ATCC 27853, adapted diffusion assay; read-out: growth inhibition diameter
B. subtilis ATCC 6633 = assay type: cell-based, Bacillus subtilis; settings: Bacillus subtilis, ATCC6633; B. subtilis ATCC 6633, adapted diffusion assay; read-out: growth inhibition diameter
Method: as §1

S. aureus ATCC 25923 = assay type: cell-based, Staphylococcus aureus; settings: Staphylococcus aureus, ATCC25923; S. aureus ATCC 25923, adapted diffusion assay; read-out: growth inhibition diameter
Method: as §1

K. pneumoniae 1771 = assay type: cell-based, Klebsiella pneumoniae; settings: Klebsiella pneumoniae; K. pneumoniae 1771, adapted diffusion assay; read-out: growth inhibition diameter
C. albicans ATCC 10231 = assay type: cell-based, Candida albicans; settings: Candida albicans, ATCC10231; C. albicans ATCC 10231, adapted diffusion assay; read-out: growth inhibition diameter
Method: as §1

Measured: zone of inhibition at 5000 µg/mL (stock)

CCc1ccc2c(c1)C(=NOC(=O)Nc1ccc(Cl)cc1Cl)c1ccccc1CO2 [Compound 7j, 2-Ethyl-6,11-dihydro-dibenz[b,e]oxepin-11(6H)one O-(2,4-dichlorophenyl-carbamoyl)oxime]
0 mm: all assays above

CCc1ccc2c(c1)C(=NOC(=O)Nc1ccc(F)cc1)c1ccccc1CO2 [Compound 7i, 2-Ethyl-6,11-dihydro-dibenz[b,e]oxepin-11(6H)one O-(4-fluorophenyl-carbamoyl)oxime]
0 mm: all assays above

O=C(Nc1ccc(Cl)cc1)ON=C1c2ccccc2COc2ccccc21 [Compound 7d, 6,11-Dihydrodibenz[b,e]oxepin-11(6H)one O-(4-chlorophenyl-carbamoyl)oxime]
0 mm: all assays above

O=C(Nc1ccc(Cl)cc1Cl)ON=C1c2ccccc2COc2ccccc21 [Compound 7e, 6,11-Dihydrodibenz[b,e]oxepin-11(6H)one O-(2,4-dichlorophenyl-carbamoyl)oxime]
0 mm: all assays above

CCc1ccc2c(c1)C(=NOC(=O)Nc1ccccc1)c1ccccc1CO2 [Compound 7h, 2-Ethyl-6,11-dihydro-dibenz[b,e]oxepin-11(6H)one O-(phenyl-carbamoyl)oxime]
0 mm: all assays above

Cc1ccc2c(c1)C(=NOC(=O)Nc1ccc(Cl)cc1Cl)c1ccccc1CO2 [Compound 7g, 2-Methyl-6,11-dihydro-dibenz[b,e]oxepin-11(6H)one O-(2,4-dichlorophenyl-carbamoyl)oxime]
0 mm: all assays above
